In US20190083497A1, “MODULATION OF BLOOD BRAIN BARRIER PERMEABILITY” (Cornell University, priority 2008, published 2019):

Assays:
blood brain barrier [1] = test: Evans Blue dye extravasation across the blood brain barrier in mice immunized for EAE; assay type: in vivo, mouse; conditions: WT EAE mice; 100 μl 0.01 nM on day 1, 3, 5, 7, 9; dye on day 10, brain harvested six hours later; vs PBS control EAE mice
Method: In order to determine if activation of adenosine receptors would induce extravazation of Evans Blue dye across the blood brain barrier (BBB), mice were first treated on day one with NECA, a non-selective adenosine receptor agonist (n=2, 100 μl 0.01 nM); and, PBS as a vehicle control (n=2, 100 μl). On day 2 mice were then immunized with CFA-MOG35-55 and pertussis to induce EAE. Then NECA or PBS was administered every other day on day 3, day 5, day 7 and day 9. On day 10, mice were injected intravenously with 200 μl 1% Evans Blue dye ([…] total dye injected). Six hours after administration of Evans Blue, mice were anesthetized with a ketamine/xylazine mix and perfused via the left ventricle with ice cold PBS. Brains were harvested and homogenized in n,n-dimethylformamide (DMF) at 5 μl/mg (v:w). Tissue was incubated for 72 hours at room temperature in DMF to extract the dye. Following extraction, the tissue/solvent mixture was centrifuged at 500×g for 30 minutes and 100 μl of supernatant was read on a BioTex spectrophotometer at 620 nm.

blood brain barrier [2] = test: Evans Blue dye extravasation across the blood brain barrier after single i.v. treatment; assay type: in vivo, mouse; conditions: 100 μl 0.01 nM single i.v. one hour before dye, brain harvested four hours after dye
Method: The objective of this experiment was to determine if the blood brain barrier could be modulated by activation of adenosine receptors. NECA is a non-selective adenosine receptor agonist, with similar affinities for A1, A2a and A3 adenosine receptors and a low affinity for the A2b adenosine receptor. In order to determine if activation of adenosine receptors would induce extravasation of Evans Blue dye across the blood brain barrier (BBB), mice were treated with: NECA, a non-selective adenosine receptor agonist (n=5, 100 μl 0.01 nM); SCH58261, an A2a adenosine receptor specific antagonist (n=5, 1 mg/kg); pertussis toxin, an agent known to induce BBB leakiness and as such used as a positive control (n=7, 200 μl); and, PBS as a vehicle control (n=5, 100 μl). CD73^−/− mice, which lack the ability to produce extracellular adenosine, were also treated with NECA (n=4, 100 μl 0.01 nM). Treatments were administered as a single i.v. injection one hour prior to i.v. injection of 200 μl 1% Evans Blue dye ([…] total dye injected). Four hours after administration of Evans Blue, mice were anesthetized with a ketamine/xylazine mix and perfused via the left ventricle with ice cold PBS. […] Following extraction, the tissue/solvent mixture was centrifuged at 500×g for 30 minutes and 100 μl of supernatant was read on a BioTex spectrophotometer at 620 nm. Data is expressed as μg Evans Blue/ml DMF.

hCMEC/D3 cells [3] = test: cAMP levels in hCMEC/D3 cells (cAMP Screen kit); assay type: cell-based, human; conditions: 15 minutes treatment, various concentrations
Method: Adenosine receptor activation regulates cAMP levels in cells. In order to determine the sensitivity of human brain endothelial cells to adenosine receptor induced cAMP regulation, human brain endothelial cells were cultured with adenosine receptor agonists at various concentrations, followed by cAMP level analysis, as shown in FIG. 13.
HCMECD3 cells were grown to confluencey on 24 well plates. As adenosine receptor (“AR”) stimulation is known to influence cAMP levels, cells were treated with or without various concentrations of NECA (general AR agonist), CCPA (A1AR agonist), CGS 21680 (A2AAR agonist), DMSO vehicle, or Forksolin (induces cAMP). After 15 minutes, lysis buffer was added and the cells were frozen at −80 C to stop the reaction. Duplicate samples were used for each condition. cAMP levels were assayed using a cAMP Screen kit (Applied Biosystems, Foster City, Calif.).

hCMEC/D3 cells [4] = test: Jurkat cell migration across hCMEC/D3 transwell in vitro BBB; assay type: cell-based, human; conditions: hCMEC/D3 on Transwell; migrated cells counted after 24 hours
Excerpt: The blood brain barrier (BBB) is comprised of endothelial cells. During late stages of EAE, lymphocytes are known to cross the BBB. In order to determine if adenosine receptor stimulation of brain endothelial cells could promote lymphocyte migration through the BBB, an in vitro BBB was established. The human brain endothelial cell line hCMEC/D3 (Weksler et al., “Blood-brain Barrier-specific Properties of a Human Adult Brain Endothelial Cell Line,” J. Neurochem. 19(13):1872-4 (2005); Poller et al., “The Human Brain Endothelial Cell Line hCMEC/D3 as a Human Blood-brain Barrier Model for Drug Transport Studies,” J. Neurochem. 107(5):1358-1368 (2008), which are hereby incorporated by reference in their entirety) was obtained, which has been previously described as having BBB properties.
hCMEC/D3 cells were seeded onto Transwell and allowed to grow to confluencey. 2×10^6 Jurkat cells were added to the upper chamber with or without NECA (general adenosine receptor [AR] agonist), CCPA (A1AR agonist), CGS 21680 (A2AAR agonist), or DMSO vehicle. After 24 hours, migrated cells in the lower chamber were counted. Values are relative to the number of cells that migrate through non-HCMECD3 seeded transwells.

Z310 cells = test: Jurkat cell migration across Z310 choroid plexus cell transwell; assay type: cell-based, murine; conditions: Z310 cells on Transwell; migrated cells counted after 24 hours; n=1
Method: The choroid plexus (“CP”) controls lymphocyte migration into the CNS. The CP expresses the A1 and A2a adenosine receptors. EAE is prevented in mice when A2a adenosine receptor activity is blocked. EAE is enhanced when the A1 adenosine receptor is missing. It was hypothesized that A2a adenosine receptor activation promotes lymphocyte migration across the CP. Z310 cells are a murine choroid plexus cell line. To test the hypothesis, Transwell membranes were seeded with Z310 cells and allowed to grow to confluencey. 2×10^6 Jurkat cells were added to the upper chamber with or with out NECA (n=1, general AR agonist), CCPA (n=1, A1AR agonist), CGS 21680 (n=1, A2AAR agonist), or DMSO vehicle(n=1). After 24 hours, migrated cells in the lower chamber were counted. Values are relative to the number of cells that migrate through non-Z310 seeded transwells and the results are shown in FIG. 12.

## CCNC(=O)[C@H]1O[C@@H](n2cnc3c(N)ncnc32)[C@H](O)[C@@H]1O [NECA]
Blood brain barrier [1]
  BBB permeability (Evans Blue dye migration into the CNS): increase in BBB permeability over PBS control EAE mice
Blood brain barrier [2]; CD73-/- mice, vs PBS control
  Evans Blue dye migration across the blood brain barrier: almost five fold increase in dye migration vs. the PBS control
Blood brain barrier [2]; WT mice, vs control mice
  Evans Blue dye migration across the blood brain barrier: increase over control mice
hCMEC/D3 cells [3]
  cAMP levels: increased cAMP levels
hCMEC/D3 cells [4]
  lymphocyte (Jurkat) migration across the in vitro BBB: induced some migration
Z310 cells
  lymphocyte (Jurkat) migration across the CP: induced migration
